From patent US10894784B2, “Heteroarylbenzimidazole compounds” (BAYER PHARMA AKTIENGESELLSCHAFT, priority 2015, dated 2021)

Target: TBK1 (Homo sapiens (Human), UniProt Q9UHD2)
Assay: TBK1 low ATP kinase assay (in vitro assay 1)
Format: biochemical
Conditions: TBK1 low ATP kinase assay IC50, in vitro assay 1

Sequence of TBK1 (Q9UHD2 whole entry): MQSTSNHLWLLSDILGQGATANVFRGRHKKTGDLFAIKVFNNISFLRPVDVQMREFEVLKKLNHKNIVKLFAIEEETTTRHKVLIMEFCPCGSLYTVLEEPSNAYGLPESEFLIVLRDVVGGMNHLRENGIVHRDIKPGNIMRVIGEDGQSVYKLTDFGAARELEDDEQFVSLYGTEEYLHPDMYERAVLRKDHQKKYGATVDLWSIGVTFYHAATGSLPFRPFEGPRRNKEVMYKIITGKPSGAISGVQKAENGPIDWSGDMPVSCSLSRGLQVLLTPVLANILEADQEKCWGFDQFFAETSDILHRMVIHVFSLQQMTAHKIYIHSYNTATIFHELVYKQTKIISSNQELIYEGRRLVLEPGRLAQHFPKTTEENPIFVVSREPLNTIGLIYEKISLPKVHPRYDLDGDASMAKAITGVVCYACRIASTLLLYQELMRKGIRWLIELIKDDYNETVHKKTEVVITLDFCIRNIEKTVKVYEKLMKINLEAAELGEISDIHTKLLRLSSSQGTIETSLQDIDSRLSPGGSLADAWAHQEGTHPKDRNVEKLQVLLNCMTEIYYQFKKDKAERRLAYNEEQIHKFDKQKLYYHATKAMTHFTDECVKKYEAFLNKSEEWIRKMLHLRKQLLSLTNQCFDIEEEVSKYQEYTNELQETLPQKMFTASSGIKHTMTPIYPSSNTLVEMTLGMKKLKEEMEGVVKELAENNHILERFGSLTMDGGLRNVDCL

Question: For `O=C(CC(F)(F)F)N1CCN(Cc2ccnc(Nc3nc4ccc(-c5cnn(CC6CCC6)c5)cc4[nH]3)c2)CC1` [Example 59.02.01, 1-(4-{[2-({6-[1-(cyclobutylmethyl)-1H-pyrazol-4-yl]-1H-benzimidazol-2-yl}amino)pyridin-4-yl]methyl}piperazin-1-yl)-3,3,3-trifluoropropan-1-one], which IC50 is on record?
Answer: The IC50 was 7.56 nM.

Same assay, conditions: in vitro assay 1, read-out: TBK1 low ATP kinase assay IC50

Question: How did the IC50 turn out when `COc1cc(-c2ccc3nc(Nc4cc(CN5CCN(C(=O)C6CC6)CC5)ccn4)[nH]c3c2OCC(C)C)ccn1` [Example 49.01, cyclopropyl{4-[(2-{[6-(2-methoxypyridin-4-yl)-7-(2-methylpropoxy)-1H-benzimidazol-2-yl]amino}pyridin-4-yl)methyl]piperazin-1-yl}methanone] was run?
Answer: Its IC50 is 217 nM.

Question: How did the IC50 turn out when `COc1cnccc1-c1ccc2nc(Nc3cc(CN4CCN(C(=O)CC(F)(F)F)CC4)ccn3)[nH]c2c1OCC(C)C` [Example 50.01, 3,3,3-trifluoro-1-{4-[(2-{[6-(3-methoxypyridin-4-yl)-7-(2-methylpropoxy)-1H-benzimidazol-2-yl]amino}pyridin-4-yl)methyl]piperazin-1-yl}propan-1-one] was run?
Answer: Its IC50 is 499 nM.

Question: For `COc1cnccc1-c1ccc2nc(Nc3cc(CN4CCN(C(=O)C5CC5)CC4)ccn3)[nH]c2c1OCC(C)C` [Example 50.02, cyclopropyl{4-[(2-{[6-(3-methoxypyridin-4-yl)-7-(2-methylpropoxy)-1H-benzimidazol-2-yl]amino}pyridin-4-yl)methyl]piperazin-1-yl}methanone], which IC50 is on record?
Answer: Its IC50 is 333 nM.

Question: For `COc1cnccc1-c1ccc2nc(Nc3cc(CN4CCN(C(=O)C5CCC5)CC4)ccn3)[nH]c2c1OCC(C)C` [Example 50.03, cyclobutyl{4-[(2-{[6-(3-methoxypyridin-4-yl)-7-(2-methylpropoxy)-1H-benzimidazol-2-yl]amino}pyridin-4-yl)methyl]piperazin-1-yl}methanone], which IC50 is on record?
Answer: Its IC50 is 645 nM.

Question: With `CCOc1c(-c2ccncc2OC)ccc2nc(Nc3cc(CN4CCN(C(=O)CC(F)(F)F)CC4)ccn3)[nH]c12` [Example 51.01, 1-{4-[(2-{[7-ethoxy-6-(3-methoxypyridin-4-yl)-1H-benzimidazol-2-yl]amino}pyridin-4-yl)methyl]piperazin-1-yl}-3,3,3-trifluoropropan-1-one] as the molecule, how does the IC50 read?
Answer: Its IC50 is 148 nM.

Question: How did the IC50 turn out when `CCOc1c(-c2ccncc2OC)ccc2nc(Nc3cc(CN4CCN(C(=O)CC5CC5)CC4)ccn3)[nH]c12` [Example 51.02, 2-cyclopropyl-1-{4-[(2-{[7-ethoxy-6-(3-methoxypyridin-4-yl)-1H-benzimidazol-2-yl]amino}pyridin-4-yl)methyl]piperazin-1-yl}ethanone] was run?
Answer: The IC50 was 270 nM.

Question: `CCOc1c(-c2ccncc2OC)ccc2nc(Nc3cc(CN4CCN(C(=O)C5CC5)CC4)ccn3)[nH]c12` [Example 51.03, cyclopropyl{4-[(2-{[7-ethoxy-6-(3-methoxypyridin-4-yl)-1H-benzimidazol-2-yl]amino}pyridin-4-yl)methyl]piperazin-1-yl}methanone] was tested. Which IC50 did it give?
Answer: The IC50 was 113 nM.

Question: `CCOc1c(-c2ccncc2OC)ccc2nc(Nc3cc(CN4CCN(C(=O)C5CCC5)CC4)ccn3)[nH]c12` [Example 51.04, cyclobutyl{4-[(2-{[7-ethoxy-6-(3-methoxypyridin-4-yl)-1H-benzimidazol-2-yl]amino}pyridin-4-yl)methyl]piperazin-1-yl}methanone] was tested. Which IC50 did it give?
Answer: Its IC50 is 203 nM.

Question: Which IC50 does the source give for `CCn1cc(-c2ccc3nc(Nc4cc(CN5CCN(C(=O)CC(F)(F)F)CC5)ccn4)[nH]c3c2OCC(C)C)cn1` [Example 52.01, 1-{4-[(2-{[6-(1-ethyl-1H-pyrazol-4-yl)-7-(2-methylpropoxy)-1H-benzimidazol-2-yl]amino}pyridin-4-yl)methyl]piperazin-1-yl}-3,3,3-trifluoropropan-1-one] here?
Answer: The IC50 was 64.7 nM.

Question: Which IC50 does the source give for `CCn1cc(-c2ccc3nc(Nc4cc(CN5CCN(C(=O)C6CC6)CC5)ccn4)[nH]c3c2OCC(C)C)cn1` [Example 52.02, cyclopropyl{4-[(2-{[6-(1-ethyl-1H-pyrazol-4-yl)-7-(2-methylpropoxy)-1H-benzimidazol-2-yl]amino}pyridin-4-yl)methyl]piperazin-1-yl}methanone] here?
Answer: The IC50 was 36.9 nM.

Question: `CCOc1c(-c2cnn(CC)c2)ccc2nc(Nc3cc(CN4CCN(C(=O)CC(F)(F)F)CC4)ccn3)[nH]c12` [Example 53.01, 1-{4-[(2-{[7-ethoxy-6-(1-ethyl-1H-pyrazol-4-yl)-1H-benzimidazol-2-yl]amino}pyridin-4-yl)methyl]piperazin-1-yl}-3,3,3-trifluoropropan-1-one] was tested. Which IC50 did it give?
Answer: Its IC50 is 132 nM.

Question: With `CCOc1c(-c2cnn(CC)c2)ccc2nc(Nc3cc(CN4CCN(C(=O)C5CC5)CC4)ccn3)[nH]c12` [Example 53.02, cyclopropyl{4-[(2-{[7-ethoxy-6-(1-ethyl-1H-pyrazol-4-yl)-1H-benzimidazol-2-yl]amino}pyridin-4-yl)methyl]piperazin-1-yl}methanone] as the molecule, how does the IC50 read?
Answer: The IC50 was 121 nM.

Question: `Cc1noc(-c2ccc3nc(Nc4cc(CN5CCN(C(=O)CC(F)(F)F)CC5)ccn4)[nH]c3c2C)n1` [Example 54.01, 3,3,3-trifluoro-1-{4-[(2-{[7-methyl-6-(3-methyl-1,2,4-oxadiazol-5-yl)-1H-benzimidazol-2-yl]amino}pyridin-4-yl)methyl]piperazin-1-yl}propan-1-one] was tested. Which IC50 did it give?
Answer: Its IC50 is 243 nM.

Question: `Cc1noc(-c2ccc3nc(Nc4cc(CN5CCN(C(=O)C6CC6)CC5)ccn4)[nH]c3c2C)n1` [Example 54.02, cyclopropyl{4-[(2-{[7-methyl-6-(3-methyl-1,2,4-oxadiazol-5-yl)-1H-benzimidazol-2-yl]amino}pyridin-4-yl)methyl]piperazin-1-yl}methanone] was tested. Which IC50 did it give?
Answer: The IC50 was 229 nM.

Question: `O=C(C1CCC1)N1CCN(Cc2ccnc(Nc3nc4ccc(-c5cnn(CC(F)(F)F)c5)cc4[nH]3)c2)CC1` [Example 58.01.01, cyclobutyl(4-{[2-({6-[1-(2,2,2-trifluoroethyl)-1H-pyrazol-4-yl]-1H-benzimidazol-2-yl}amino)pyridin-4-yl]methyl}piperazin-1-yl)methanone] was tested. Which IC50 did it give?
Answer: The IC50 was 12.8 nM.

Question: `O=C(CC(F)(F)F)N1CCN(Cc2ccnc(Nc3nc4ccc(-c5cnn(CC(F)(F)F)c5)cc4[nH]3)c2)CC1` [Example 58.01.02, 3,3,3-trifluoro-1-(4-{[2-({6-[1-(2,2,2-trifluoroethyl)-1H-pyrazol-4-yl]-1H-benzimidazol-2-yl}amino)pyridin-4-yl]methyl}piperazin-1-yl)propan-1-one] was tested. Which IC50 did it give?
Answer: Its IC50 is 9.81 nM.

Question: How did the IC50 turn out when `O=C(C1CC1)N1CCN(Cc2ccnc(Nc3nc4ccc(-c5cnn(CC(F)(F)F)c5)cc4[nH]3)c2)CC1` [Example 58.01.03, cyclopropyl(4-{[2-({6-[1-(2,2,2-trifluoroethyl)-1H-pyrazol-4-yl]-1H-benzimidazol-2-yl}amino)pyridin-4-yl]methyl}piperazin-1-yl)methanone] was run?
Answer: Its IC50 is 6.44 nM.

Question: With `O=C(C1CC1)N1CCN(Cc2ccnc(Nc3nc4ccc(-c5cnn(CC6CCC6)c5)cc4[nH]3)c2)CC1` [Example 59.02.02, (4-{[2-({6-[1-(cyclobutylmethyl)-1H-pyrazol-4-yl]-1H-benzimidazol-2-yl}amino)pyridin-4-yl]methyl}piperazin-1-yl)(cyclopropyl)methanone] as the molecule, how does the IC50 read?
Answer: Its IC50 is 6.71 nM.

Question: `COc1c(Cl)ncnc1-c1ccc2nc(Nc3cc(CN4CCN(C(=O)CC(F)(F)F)CC4)ccn3)[nH]c2c1` [Example 60.01, 1-{4-[(2-{[6-(6-chloro-5-methoxypyrimidin-4-yl)-1H-benzimidazol-2-yl]amino}pyridin-4-yl)methyl]piperazin-1-yl}-3,3,3-trifluoropropan-1-one] was tested. Which IC50 did it give?
Answer: The IC50 was 43 nM.
